Results taken from patent publication US20240239790A1, “7-Morpholino-1,6-Naphthyridin-5-yl Derivatives and Pharmaceutical Compositions Thereof Useful as DNA-PK Inhibitor” (adMare Therapeutics Society, priority 2021, published 2024).
Where two headings read alike, the source gives them in different places.

Columns and labels:
[1] = test system: pDNA-PK induction in FaDU tumour spheroids; experiment: Multicellular tumour spheroid + radiation, pDNA-PK (ser2056) inhibition, immunohistochemical endpoint, FaDU; assay type: cell-based; conditions: Homo sapiens, 20 Gy
Protocol: Multicellular tumour spheroids determination of compound inhibition of pDNA-PK induction following radiation. Tumour spheroids were grown to approximately 0.5 mm in diameter and irradiated with 20 Gy in combination with inhibitor test compounds to determine their potency. Inhibitor concentration for 50% reduction in pDNA-PK induction (IC50) was determined via immunohistochemical staining in spheroid cryosections taken 2 hours following radiation. For cell survival endpoint 8 Gy radiation was used and 3 hours following radiation spheroids were dissociated, counted and plated for colony forming endpoint.
Spheroid+radiation pDNA-PK. Radiation: 20 Gy. Drug: serial dilution 5 or 10 μM down to 3.5 nM (11 wells). Spheroids: 3-6 spheroids per well (300-500 μm diameter). 20% 02 and 5% CO2. 96 well plate format. Endpoint: fluorescent immunostain pDNA-PK ser2056 and image on microscope. Analysis: determine EC50 concentrations that decreases pDNA-PK induction by 50% after irradiation.
Multicellular tumour spheroids were used to determine potency of test compounds in a 3D tissue environment using inhibition of pDNA-PK induction following radiation or cell survival as the endpoint. For the pDNA-PK endpoint HCT116 or FaDU tumour spheroids were grown to approximately 0.5 mm in diameter and irradiated with 20 Gy in combination with inhibitor test compounds to determine their potency. Experiments were carried out in 96 well plates containing 0.7 mls of MEM media containing 10% FBS and 10 mM glucose under 20% O2 & 5% CO2 at 37° C. Following dilution of compounds 1:1000 from DMSO stocks, compounds were serially diluted from 10 μM down to 3.5 nM and 5-10 spheroids added. 96 well plates were constantly stirred to avoid spheroids settling during the course of the experiment. The inhibitor concentration for 50% reduction in pDNA-PK induction (EC50) was determined via immunohistochemical staining in spheroid cryosections taken 2 hours following radiation using anti-pDNA-PK (ser 2056) and fixed immediately in formalin following sectioning. For cell survival endpoint 8 Gy radiation was used and, 3 hours following radiation, spheroids were dissociated, counted and plated for colony forming endpoint. Data presented in the table compound potency as EC50 [μM].

[2] = target: T1, DNA-PK phosphorylation at Serine 2056 (Homo sapiens, UniProt P78527); experiment: Cellular Assay for Inhibition of DNA-PK Phosphorylation at Serine 2056 in FaDu cells (sandwich ELISA, neocarzinostatin); assay type: cell-based; conditions: pSer2056 DNA-PK
T1 construct: FaDu cells were purchased from ATCC; host or cells: FaDu
Method in brief: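 pSer2056 and total DNA-PK were measured by sandwich ELISA in BCA-normalised FaDu lysates. Cells had 1 h compound exposure (0.3% DMSO), then 2 h with 1 μg/mL final neocarzinostatin. IC50 was fitted (variable slope) to % inhibition scaled against NCS-stimulated and DMSO-only controls.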

DNA-PK = target: T2, DNA-PK (Homo sapiens, UniProt P78527); experiment: DNA-PK Assay for Biochemical Enzymatic Inhibition (ADP Glo Kinase assay); conditions: DNA-PK enzyme
T2 construct: purchased Invitrogen PR9107A
Method in brief: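 Human DNA-PK (25 ng) preincubated 15 min with compounds (ten three-fold dilutions) in HEPES pH 7.5, MgCl2, KCl, calf thymus DNA buffer, then substrate 434.4 μM and ATP 64.4 μM (final) for 60 min at room temperature. ADP-Glo luminescence; percent inhibition fitted by four-parameter regression for IC50.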

[3] = test system: pDNA-PK induction in HCT116 tumour spheroids; experiment: Multicellular tumour spheroid + radiation, pDNA-PK (ser2056) inhibition, immunohistochemical endpoint, HCT116; assay type: cell-based; conditions: Homo sapiens, 20 Gy, 20% O2
Method in brief: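 HCT116 spheroids (~0.5 mm) in MEM/10% FBS, 20% O2, 37° C., pre-incubated 1 h with compound (10 or 5 μM down to 3.5 nM), irradiated 20 Gy, then 2 h further with compound. Cryosections immunostained for pDNA-PK ser2056; EC50 is concentration halving radiation-induced pDNA-PK.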

[4] = Microsomal Stability Assay, mouse liver microsomes; assay type: in vitro ADME; conditions: for microsomal CLint at 0.1 uM: male, CD-1, pH 7.4
Protocol: (§1) Samples were then mixed and centrifuged. Supernatants were used for HPLC-MS/MS analysis. […] Peak areas corresponding to the test compound were recorded.

[5] = Microsomal Stability Assay, human liver microsomes; assay type: in vitro ADME; conditions: human liver microsomes, Example 11; for microsomal CLint at 0.1 uM: both sexes, pH 7.4
Protocol: as §1

FaDu cell line = experiment: Prodrug Activation in Hypoxic Stirred Tumour Cell Suspensions; conditions: 10 μM, 4 hours
[6] = test system: pH2AX induction in HCT116 ATM-/- multicellular tumour spheroids; experiment: Prodrug Radiation Sensitization in Multicellular Tumour Spheroids, inhibition of pH2AX induction following radiation; assay type: cell-based; conditions: Homo sapiens, HCT-116, 20 Gy
Method in brief: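 Endpoint: pH2AX (ser 139) or pDNA-PK (ser 2056) in cryosections fixed 1 or 2 h after 20 Gy, comparing oxygenated outer with hypoxic inner layers. Spheroids of ~0.5 mm (HCT116, FaDu; ATM-deficient cells used) held at 20% or 5% O2, 37 °C, stirred. Prodrug range 3.5 nM–10 μM.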

FaDu tumour xenograft = experiment: Tumour Growth Delay, FaDu tumour xenograft-bearing animals, compound ± radiation (TGD-ER); assay type: in vivo; conditions: PO
Protocol: FaDu tumour xenograft-bearing animals were monitored for tumour growth and once average tumour size reached approximately 100-250 mm3, animals were assigned to treatment cohorts using stratified randomization. […]
For BID dosing regimens, at 8 h following the first injection, animals were again administered with test compound at the same dose as their previous administration. Animals were weighed and had tumours measured using calipers three times weekly until the endpoint of maximum tumour volume, 1000 mm3, was reached and animals were euthanized. Tumour volumes were calculated according to the equation L×W^2/2 with the length (mm) being the longer axis of the tumour; in the case that no tumour was palpable, tumour volumes were recorded as 0 mm^3.
Data were calculated as tumour growth normalized to day 0 measurements, with time to tumour doubling determined. Average time to tumour doubling for each group was used to determine a Tumour Growth Delay Enhancement Ratio (TGD-ER): the time to doubling for treatment groups were divided by the time to doubling for irradiation-alone groups to determine group-specific TGD-ER values, and these were assigned scores based on defined response ranges: values>2.5=A, 1-2.5=B, <1=C.

[7] = 2 hours following radiation, 20% O2, Example 9 Study 2, read-out: Spheroid Cell line: FaDU Immunohistochemical endpoint pDNA-PK inhibition EC50
[8] = 2 h, spheroids, 20% O2, Example 8, read-out: Cell line: FaDU Immunohistochemical endpoint pDNA-PK inhibition EC50
[9] = neocarzinostatin 1 μg/mL, Table 1
[10] = HCT-116, 2 h, spheroids, Example 8, read-out: Cell line: HCT116 Immunohistochemical endpoint pDNA-PK inhibition EC50
[11] = HCT-116, 2 hours following radiation, Example 9 Study 2, read-out: Spheroid Cell line: HCT116 Immunohistochemical endpoint pDNA-PK inhibition EC50
[12] = HCT-116, Spheroid, Cell Line: HCT115 (so in the source), 2 hours following radiation, Example 7, read-out: EC50, Immunohistochemical endpoint, pDNA-PK inhibition
[13] = 5% O2, inner layers, read-out: Prodrug 5% O2 Inner layers EC50
[14] = 5% O2, outer layers, read-out: Prodrug 5% O2 Outer layers EC50
[15] = 20% O2, outer layers, read-out: Prodrug 20% O2 Outer layers EC50
[16] = mouse liver microsomes, Example 11

## COc1ccc(NC(=O)N[C@H]2CC[C@@H](Oc3nc(N4CCOCC4)cc4ncccc34)CC2)cc1 [Compound 152, 1-(4-Methoxyphenyl)-3-((1s,4s)-4-((7-morpholino-1,6-naphthyridin-5-yl)oxy)cyclohexyl)urea]
[1]; [7]
  EC50: 500 to 1000 nM
[1]; [8]
  EC50: 500 to 1000 nM
[2]; [9]
  IC50: 100 to 1000 nM
DNA-PK; Table 1
  IC50: 0.5 to 1 nM
[3]; [10]
  EC50: 1000 to 10000 nM
[3]; [11]
  EC50: 1000 to 10000 nM
[3]; [12]
  EC50: 1000 to 10000 nM

## O=C(Nc1ccncc1)[C@H]1CC[C@@H](Oc2nc(N3CCOCC3)cc3ncccc23)CC1 [Compound 154e, (1S,4S)-4-((7-morpholino-1,6-naphthyridin-5-yl)oxy)-N-(pyridin-4-yl)cyclohexane-1-carboxamide]
[1]; [7]
  EC50: 500 to 1000 nM
[1]; [8]
  EC50: 500 to 1000 nM
[2]; [9]
  IC50: 100 to 1000 nM
[4]; mouse liver microsomes 0.1 mg/mL, 0.1 uM compound
  microsomal CLint at 0.1 uM: > 116 µL/min/mg
[4]; mouse liver microsomes
  Microsomal Stability Mouse % rem. 60 min: E (% remaining = 0-25%)
DNA-PK; Table 1
  IC50: 1 to 10 nM
[3]; [10]
  EC50: 1000 to 10000 nM
[3]; [11]
  EC50: 1000 to 10000 nM
[3]; [12]
  EC50: 1000 to 10000 nM

## CN(C)C(=O)COc1cnc(N[C@H]2CC[C@@H](Oc3nc(N4CCOCC4)cc4ncc(Br)cc34)CC2)nc1 [Compound 178, 2-((2-(((1s,4s)-4-((3-bromo-7-morpholino-1,6-naphthyridin-5-yl)oxy)cyclohexyl)amino)pyrimidin-5-yl)oxy)-N,N-dimethylacetamide]
[1]; [7]
  EC50: 1000 to 10000 nM
[1]; [8]
  EC50: 1000 to 10000 nM
[2]; [9]
  IC50: 100 to 1000 nM
DNA-PK; Table 1
  IC50: < 0.5 nM
[3]; [10]
  EC50: 500 to 1000 nM
[3]; [11]
  EC50: 500 to 1000 nM
[3]; [12]
  EC50: 500 to 1000 nM

## Cn1c(CN(c2cnc3cc(N4CCOCC4)nc(OC4CCC(NC(=O)c5ncccn5)CC4)c3c2)S(C)(=O)=O)cnc1[N+](=O)[O-] (centres unmarked) [LFA016, N-[4-[[3-[(3-Methyl-2-nitro-imidazol-4-yl)methyl-methylsulfonyl-amino]-7-morpholino-1,6-naphthyridin-5-yl]oxy]cyclohexyl]pyrimidine-2-carboxamide]
[5]
  microsomal CLint at 0.1 uM: < 116 µL/min/mg
  Microsomal Stability Human % rem. 60 min: F (% remaining = 25-50%)
FaDu cell line
  Fraction of prodrug converted to active form, Hypoxic 0.2% O2: C (C is 0.02 to 0.05)
  Fraction of prodrug converted to active form, Oxic 5% O2: D (D is 0 to 0.02)
[6]; [13]
  EC50: 1000 to 10000 nM
[6]; [14]
  EC50: 1000 to 10000 nM
[6]; [15]
  EC50: 10000 to 100000 nM
[2]; Table 2
  IC50: 10000 to 30000 nM
[4]; [16]
  microsomal CLint at 0.1 uM: < 116 µL/min/mg
  Microsomal Stability Mouse % rem. 60 min: G (% remaining = 50-75%)
DNA-PK; Table 2
  IC50: 10 to 150 nM

## CN1CCN(CCOc2cnc(N[C@H]3CC[C@@H](Oc4nc(N5CCOCC5)cc5ncc(NS(C)(=O)=O)cc45)CC3)nc2)CC1 [LFA031, N-[5-[4-[[5-[2-(4-Methylpiperazin-1-yl)ethoxy]pyrimidin-2-yl]amino]cyclohexoxy]-7-morpholino-1,6-naphthyridin-3-yl]methanesulfonamide]
FaDu tumour xenograft; 30 mpk BID + 10 Gy
  TGD-ER Range Score: B (1-2.5=B)

## CC(c1cnc([N+](=O)[O-])n1C)N(c1cnc2cc(N3CCOCC3)nc(O[C@H]3CC[C@@H](Nc4ncc(OCCN5CCN(C)CC5)cn4)CC3)c2c1)S(C)(=O)=O (some centres unmarked) [LFA033, N-[1-(3-Methyl-2-nitro-imidazol-4-yl)ethyl]-N-[5-[4-[[5-[2-(4-methylpiperazin-1-yl)ethoxy]pyrimidin-2-yl]amino]cyclohexoxy]-7-morpholino-1,6-naphthyridin-3-yl]methanesulfonamide]
FaDu tumour xenograft; 50 mpk BID + 10 Gy
  TGD-ER Range Score: C (<1=C)

## CN(C)C(=O)COc1cnc(N[C@H]2CC[C@@H](Oc3nc(N4CCOCC4)cc4ncc(OCc5cnc([N+](=O)[O-])n5C)cc34)CC2)nc1 [LFA114, N,N-Dimethyl-2-[2-[[4-[[3-[(3-methyl-2-nitro-imidazol-4-yl)methoxy]-7-morpholino-1,6-naphthyridin-5-yl]oxy]cyclohexyl]amino]pyrimidin-5-yl]oxy-acetamide]
[5]
  microsomal CLint at 0.1 uM: < 116 µL/min/mg
  Microsomal Stability Human % rem. 60 min: E (% remaining = 0-25%)
FaDu cell line
  Fraction of prodrug converted to active form, Hypoxic 0.2% O2: A (A is 0.15 to 1)
  Fraction of prodrug converted to active form, Oxic 5% O2: B (B is 0.05 to 0.15)
[6]; [13]
  EC50: 10 to 500 nM
[6]; [14]
  EC50: 500 to 1000 nM
[6]; [15]
  EC50: 1000 to 10000 nM
[2]; Table 2
  IC50: 10000 to 30000 nM
[4]; [16]
  microsomal CLint at 0.1 uM: > 116 µL/min/mg
  Microsomal Stability Mouse % rem. 60 min: E (% remaining = 0-25%)
DNA-PK; Table 2
  IC50: 10 to 150 nM
